According to patent US20070149485A1, “SELECTED DOSAGE FOR THE TREATMENT OF CARDIOVASCULAR AND RELATED PATHOLOGIES” (Medicure International, Inc., priority 2005, published 2007):

Assays:
[1] = tested on: high-risk patients undergoing CABG surgery with cardiopulmonary bypass; test: Cognitive function after CABG surgery, Mini Mental State Exam (MMSE), MEND-CABG trial; format: in vivo, human; settings: for MMSE at POD 30, Mean / MMSE at POD 90, Mean: score 0-30
Method: The ability of P5P to protect against cognitive decline following CABG surgery was evaluated through the administration of a battery of validated psychometric tests pre-operatively, 4 days after surgery, 30 days after surgery, and 90 days after surgery.
A randomized, double-blind placebo-controlled, dose-ranging, parallel-arm multi-center study was undertaken, on high-risk patients undergoing CABG surgery with cardiopulmonary bypass.
Patients were identified as “high risk” if they had two or more of the following risk factors: • Age greater than 65 years; • Diabetes mellitus; • History of congestive heart failure; • History of a previous non-disabling stroke, transient ischemic attack, or carotid endarterectomy; • Prior CABG surgery; • Urgent CABG intervention defined as the need to stay in the hospital (although the patient may be operated on within a normal scheduling routine); • History of myocardial infarction that occurred more than 48 hours but less than 6 weeks prior to CABG surgery; and • Presence of at least one asymptomatic carotid artery stenosis (>50%) either in one or two carotid arteries.
Approximately 900 high risk pre-CABG patients in 42 different treatment centers in North America were screened and randomized to three groups of approximately 300 patients each, prior to their bypass surgery, as follows. Patients were either placed in a control group (placebo), treated with 250 mg/day of P5P, (250 mg/day), or treated with 750 mg/day of P5P (750 mg/day). The first dose of study medication was administered at 3-10 hours prior to CABG surgery. In the event of surgery delay or rescheduling, a second pre-operative dose of P5P was administered so that all patients received study medication 3-10 hours before surgery. Treatment continued for 30 days after surgery (post operative day (POD) 30). Patients received follow-up evaluations up to and including postoperative day (POD) 4, on POD 30 and on POD 90.
Patients were measured to assess change in cognitive function by the effects of P5P on neurological events following CABG surgery by methods of Mini Mental State Exam and psychometric testing (grooved pegboard).
MMSE is a well validated test to screen cognitive function (Folstein, J Psychiatr Res. 1975 Nov.;12(3):189-98). It measures orientation, registration (immediate memory), short-term (but not long-term) memory, and language functioning. The test is scored from 0-30, with scores of 25-30 considered normal, scores of 18-24 indicative of mild cognitive impairment, and scores under 17 indicative of severe impairment (Crum, JAMA. 1993 May 12;269(18):2386-91). This test is appropriate to indicate the presence of cognitive impairment.
The MMSE was administered to all 900 patients at screening, post-operative day (POD) 30, and POD 90. The MMSE score at POD 90 was analyzed using an analysis of covariance (ANOCO) model, adjusting for the MMSE score at screening. […] The results with P5P treatment (either 250 or 750 mg/day) were tabulated in Table 7, according to screening MMSE score.

[2] = in water, alcohol, and ether; cited from earlier work
[3] = tested on: adenosine triphosphate (ATP) induced calcium ion influx into cells; settings: a recent evaluation; suggested antagonism of P2 purinoceptors; cited from earlier work

Cc1ncc(COP(=O)(O)O)c(C=O)c1O [P5P, 3-hydroxy-2-methyl-5-[(phosphonooxy)methyl]-4-pyridine-carboxaldehyde]
MMSE at POD 90, Adjusted Mean ([1]; 250 mg/day, MMSE screening = 25, ANOCO p 0.0067 vs placebo): 27.74 | MMSE at POD 90, Adjusted Mean ([1]; 250 mg/day, MMSE screening = 26, ANOCO p 0.0074 vs placebo): 28.08 | MMSE at POD 90, Adjusted Mean ([1]; 250 mg/day, MMSE screening = 27, ANOCO p 0.0116 vs placebo): 28.42 | MMSE at POD 90, Adjusted Mean ([1]; 250 mg/day, MMSE screening = 28, ANOCO p 0.0579 vs placebo): 28.76 | MMSE at POD 90, Adjusted Mean ([1]; 250 mg/day, MMSE screening = 29, ANOCO p 0.7654 vs placebo): 29.10 | MMSE at POD 90, Adjusted Mean ([1]; 250 mg/day, MMSE screening = 30, ANOCO p 0.2726 vs placebo): 29.44 | MMSE at POD 30, Mean ([1]; 250 mg/day): 28.57 | MMSE at POD 90, Mean ([1]; 250 mg/day): 28.97 | MMSE at POD 90, Adjusted Mean ([1]; 750 mg/day, MMSE screening = 25, ANOCO p 0.0664 vs placebo): 27.41 | MMSE at POD 90, Adjusted Mean ([1]; 750 mg/day, MMSE screening = 26, ANOCO p 0.0701 vs placebo): 27.83 | MMSE at POD 90, Adjusted Mean ([1]; 750 mg/day, MMSE screening = 27, ANOCO p 0.0875 vs placebo): 28.25 | MMSE at POD 90, Adjusted Mean ([1]; 750 mg/day, MMSE screening = 28, ANOCO p 0.1926 vs placebo): 28.67 | MMSE at POD 90, Adjusted Mean ([1]; 750 mg/day, MMSE screening = 29, ANOCO p 0.8350 vs placebo): 29.08 | MMSE at POD 90, Adjusted Mean ([1]; 750 mg/day, MMSE screening = 30, ANOCO p 0.4317 vs placebo): 29.50 | MMSE at POD 30, Mean ([1]; 750 mg/day): 28.79 | MMSE at POD 90, Mean ([1]; 750 mg/day): 28.99 | protection against the decline in overall neurocognitive function associated with CABG surgery ([1]; MEND-CABG trial, 250 or 750 mg/day): provided protection | Improvements in MMSE score, 250 mg/day dose group compared with 750 mg/day dose group ([1]; in particular in patients with lower MMSE scores at screening): more significant | solubility [2]: essentially insoluble | adenosine triphosphate (ATP) induced calcium ion influx into cells [3]: inhibits
